According to ChEMBL document CHEMBL5137032, “Design, synthesis of DNA-interactive 4-thiazolidinone-based indolo-/pyrroloazepinone conjugates as potential cytotoxic and topoisomerase I inhibitors” (Eur J Med Chem, 2022):

Key:
Assay type in all cases: functional, cell-based
HCT-116 = test: Cytotoxicity against human HCT-116 cells assessed as cell growth inhibition incubated for 48 hrs by MTT assay; settings: HCT-116, 48 h
SK-MEL-28 = test: Cytotoxicity against human SK-MEL-28 cells assessed as cell growth inhibition incubated for 48 hrs by MTT assay; settings: SK-MEL-28, 48 h
HT-29 = test: Cytotoxicity against human HT-29 cells assessed as cell growth inhibition incubated for 48 hrs by MTT assay; settings: HT-29, 48 h
MCF7 = test: Cytotoxicity against human MCF7 cells assessed as cell growth inhibition incubated for 48 hrs by MTT assay; settings: MCF7, 48 h
A549 = test: Cytotoxicity against human A549 cells assessed as cell growth inhibition incubated for 48 hrs by MTT assay; settings: A549, 48 h

Compound | IC50 (HCT-116) | IC50 (SK-MEL-28) | IC50 (HT-29) | IC50 (MCF7) | IC50 (A549)
CC(C)(C)c1ccc(C/N=C2\NC(=O)/C(=C3\CCNC(=O)c4[nH]c5ccccc5c43)S2)cc1 | 15.9 µM | 8.97 µM | 13.6 µM | 9.01 µM | 19.3 µM
COc1ccc(C/N=C2\NC(=O)/C(=C3\CCNC(=O)c4[nH]ccc43)S2)cc1 | 19.4 µM | 12.1 µM | 11.5 µM | 6.24 µM | 18.3 µM
O=C1N/C(=N\Cc2ccccc2)S/C1=C1/CCNC(=O)c2[nH]c3ccccc3c21 | 34.4 µM | 29.8 µM | 31.8 µM | 31 µM | 48.2 µM
O=C1N/C(=N\CCc2ccccc2)S/C1=C1/CCNC(=O)c2[nH]ccc21 | 17.8 µM | 12.3 µM | 24.9 µM | 21 µM | 19.5 µM
O=C1N/C(=N\Cc2ccc(F)cc2)S/C1=C1/CCNC(=O)c2[nH]c3ccccc3c21 | 30.8 µM | > 50 µM | 38 µM | 40.3 µM | 36.5 µM
O=C1N/C(=N\Cc2ccccc2Cl)S/C1=C1/CCNC(=O)c2[nH]ccc21 | > 50 µM | > 100 µM | > 100 µM | 21.2 µM | > 100 µM
CC(C)(C)c1ccc(C/N=C2\NC(=O)/C(=C3\CCNC(=O)c4[nH]ccc43)S2)cc1 | > 100 µM | 23.5 µM | 43.4 µM | 18.9 µM | 43.9 µM
COc1ccc(C/N=C2\NC(=O)/C(=C3\CCNC(=O)c4c3ccn4C)S2)cc1 | > 100 µM | > 100 µM | 32.4 µM | > 100 µM | > 100 µM
O=C1N/C(=N\Cc2ccc(Cl)cc2)S/C1=C1/CCNC(=O)c2[nH]ccc21 | > 100 µM | > 100 µM | > 100 µM | > 100 µM | > 100 µM
COc1ccc(CC/N=C2\NC(=O)/C(=C3\CCNC(=O)c4[nH]ccc43)S2)cc1 | 10.8 µM | 7.86 µM | 8.14 µM | 6.47 µM | 16 µM
O=C1N/C(=N\Cc2ccc(C(F)(F)F)cc2)S/C1=C1/CCNC(=O)c2[nH]ccc21 | > 100 µM | > 100 µM | > 50 µM | > 100 µM | > 100 µM
COc1ccc(C/N=C2\NC(=O)/C(=C3\CCNC(=O)c4[nH]c5ccccc5c43)S2)cc1 | 17.5 µM | 9.68 µM | 12.3 µM | 6.33 µM | 3.73 µM
COc1ccc(CC/N=C2\NC(=O)/C(=C3\CCNC(=O)c4[nH]c5ccccc5c43)S2)cc1 | 18.6 µM | 3.49 µM | 15 µM | 9.41 µM | 20.5 µM
O=C1N/C(=N\Cc2ccc3c(c2)OCO3)S/C1=C1/CCNC(=O)c2[nH]ccc21 | 4.25 µM | 11.2 µM | 16.5 µM | 4.31 µM | 19.9 µM
COc1cccc2c1C(=O)c1c(O)c3c(c(O)c1C2=O)C[C@@](O)(C(=O)CO)C[C@@H]3O[C@H]1C[C@H](N)[C@H](O)[C@H](C)O1 [DOXORUBICIN] | 7.41 µM | 1.64 µM | – | – | –
O=C1N/C(=N\Cc2ccccc2)S/C1=C1/CCNC(=O)c2[nH]ccc21 | 49.7 µM | 38.4 µM | 36.5 µM | 31.1 µM | 26.9 µM
O=C1N/C(=N\CCc2ccc(F)cc2)S/C1=C1/CCNC(=O)c2[nH]c3ccccc3c21 | > 50 µM | > 50 µM | > 50 µM | > 50 µM | > 50 µM
O=C1N/C(=N\Cc2cccc(Cl)c2)S/C1=C1/CCNC(=O)c2[nH]ccc21 | – | 34.6 µM | 35.3 µM | 20.7 µM | 35.2 µM
O=C1N/C(=N\Cc2cccc(Cl)c2)S/C1=C1/CCNC(=O)c2[nH]c3ccccc3c21 | 25.2 µM | 23.8 µM | > 50 µM | 28.1 µM | 33.7 µM
O=c1[nH]cc(F)c(=O)[nH]1 [FLUOROURACIL] | – | 14.6 µM | 23.9 µM | 21.1 µM | –
